Earlier results in US10632442B2, “Apparatus for a mass production of monodisperse biodegradable polymer-based microspheres and a multi-channel forming device incorporatable therein” (INVENTAGE LAB, INC., priority 2016, dated 2020).

Conditions: in vivo

AUC: 217 ng·days/mL | Cmax: 5.1 ng/mL | Tmax: 7 to 10 days | T½: 35 days
Structure (SMILES): CO/N=C1\C[C@]2(C[C@@H]3C[C@@H](C/C=C(\C)C[C@@H](C)/C=C/C=C4\CO[C@@H]5[C@H](O)C(C)=C[C@@H](C(=O)O3)[C@]45O)O2)O[C@H](/C(C)=C/C(C)C)[C@H]1C [Moxidectin]
